Drawing on PubChem BioAssay AID248 (DTP/NCI, 2004), this text covers T/C for 16 molecules.

SMILES strings stand for the structures. Several values for one entry are separate records, joined by “and”; a condition that tells them apart may be missing. Identical values can stand only once. Toxic doses and inconclusive results are not listed.

For this experiment, the system named is L1210 leukemia ip in BDF1 mice, survival T/C. The experiment is described as follows: NCI In Vivo Anticancer Drug Screen. Data for tumor model L1210 Leukemia (intraperitoneal) in B6D2F1 (BDF1) mice. Conditions: endpoint: mean survival time, higher = longer survival. In a few lines:
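In this screen, tumor-bearing mice given compound are compared to those given vehicle, and their survival values are reported as a treated-to-control quotient.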

[1] abbreviates: dose: 100.0 mg/kg/injection, schedule: Q01DX009 (ip), vehicle: Klucel (hydroxypropylcellulose) (HPC).
The mark [2] stands for this setting: dose: 100.0 mg/kg/injection, schedule: Q04DX002 (ip), vehicle: Klucel (hydroxypropylcellulose) (HPC).
[3] abbreviates: dose: 100.0 mg/kg/injection, schedule: Q04DX003 (ip), vehicle: Klucel (hydroxypropylcellulose) (HPC).
[4] abbreviates: dose: 200.0 mg/kg/injection, schedule: Q01DX009 (ip), vehicle: Klucel (hydroxypropylcellulose) (HPC).
The mark [5] stands for this setting: dose: 200.0 mg/kg/injection, schedule: Q04DX002 (ip), vehicle: Klucel (hydroxypropylcellulose) (HPC).
The mark [6] stands for this setting: dose: 200.0 mg/kg/injection, schedule: Q04DX003 (ip), vehicle: Klucel (hydroxypropylcellulose) (HPC).
Setting [7] is: dose: 400.0 mg/kg/injection, schedule: Q01DX009 (ip), vehicle: Klucel (hydroxypropylcellulose) (HPC).
[8] abbreviates: dose: 400.0 mg/kg/injection, schedule: Q04DX002 (ip), vehicle: Klucel (hydroxypropylcellulose) (HPC).
[9] abbreviates: dose: 400.0 mg/kg/injection, schedule: Q04DX003 (ip), vehicle: Klucel (hydroxypropylcellulose) (HPC).
Where [10] appears, read: dose: 12.5 mg/kg/injection, schedule: Q01DX009 (ip), vehicle: saline with Tween-80.
Setting [11] is: dose: 100.0 mg/kg/injection, schedule: Q01DX001 (ip), vehicle: saline.

Consider `COc1ccc([N+](=O)[O-])cc1NC(=O)NCc1cccnc1`, for which the T/C (dose: 100.0 mg/kg/injection, schedule: Q01DX001 (ip), vehicle: Klucel (hydroxypropylcellulose) (HPC)) is 91 % of control; the T/C under setting [1] was 93 % of control and 91 % of control; the T/C under setting [2] was 87 % of control and 92 % of control; the T/C under setting [3] is 103 % of control; the T/C (dose: 200.0 mg/kg/injection, schedule: Q01DX001 (ip), vehicle: Klucel (hydroxypropylcellulose) (HPC)) is 93 % of control; the T/C under setting [4] is 93 % of control and 98 % of control. The T/C by setting is: under setting [5], 97 % of control and 87 % of control; under setting [6], 100 % of control; (dose: 400.0 mg/kg/injection, schedule: Q01DX001 (ip), vehicle: Klucel (hydroxypropylcellulose) (HPC)) 90 % of control; under setting [7], 93 % of control and 95 % of control; under setting [8], 97 % of control and 92 % of control; under setting [9], 101 % of control.

`CCn1nnc2c(N(C)C)nc(N)nc21`: the T/C is 93 % of control (dose: 50.0 mg/kg/injection, schedule: Q01DX009 (ip), vehicle: Klucel (hydroxypropylcellulose) (HPC)); 95 % of control under setting [1]; 93 % of control under setting [3]; 92 % of control under setting [6].

`CC(C)(Cl)CNC(=O)c1ccc([N+](=O)[O-])cc1`: the T/C reads like this: under setting [1], 92 % of control; under setting [3], 107 % of control; under setting [4], 96 % of control; under setting [6], 94 % of control; under setting [7], 91 % of control; under setting [9], 92 % of control.

As to `CC(=O)Nc1ccc2c(Nc3ccc(NS(C)(=O)=O)cc3)c3ccccc3nc2c1`, the T/C is 151 % of control (dose: 0.8 mg/kg/injection, schedule: Q01DX009 (ip), vehicle: Klucel (hydroxypropylcellulose) (HPC)); 156 % of control (dose: 1.5 mg/kg/injection, schedule: Q01DX009 (sc), vehicle: saline); 159 % of control (dose: 1.6 mg/kg/injection, schedule: Q01DX009 (ip), vehicle: Klucel (hydroxypropylcellulose) (HPC)); 180 % of control (dose: 3.1 mg/kg/injection, schedule: Q01DX009 (ip), vehicle: Klucel (hydroxypropylcellulose) (HPC)); 228 % of control (dose: 5.4 mg/kg/injection, schedule: Q01DX009 (ip), vehicle: saline with Tween-80); 281 % of control (dose: 6.25 mg/kg/injection, schedule: Q01DX009 (ip), vehicle: Klucel (hydroxypropylcellulose) (HPC)). The T/C was 176 % of control (dose: 8.0 mg/kg/injection, schedule: Q01DX009 (ip), vehicle: saline with Tween-80); 171 % of control (dose: 12.0 mg/kg/injection, schedule: Q01DX009 (ip), vehicle: saline with Tween-80); 165 % of control under setting [10]; 152 % of control (dose: 12.5 mg/kg/injection, schedule: Q01DX009 (sc), vehicle: saline); 93 % of control (dose: 18.0 mg/kg/injection, schedule: Q01DX009 (ip), vehicle: saline with Tween-80); 93 % of control (dose: 25.0 mg/kg/injection, schedule: Q01DX009 (ip), vehicle: Klucel (hydroxypropylcellulose) (HPC)).

In the case of `CCCCCCCCCCCCSC(=S)N(CC)CC`, the T/C is, setting by setting: (dose: 87.5 mg/kg/injection, schedule: Q01DX009 (ip), vehicle: other) 89 % of control; (dose: 175.0 mg/kg/injection, schedule: Q01DX009 (ip), vehicle: other) 93 % of control; (dose: 350.0 mg/kg/injection, schedule: Q01DX009 (ip), vehicle: other) 97 % of control.

On to `O=C1CCN(CCN2CCC(=O)N(Cc3ccccc3)C2=S)C(=S)N1Cc1ccccc1`, for which the T/C was 100 % of control under setting [2], 107 % of control under setting [5] and 96 % of control under setting [8].

For `CC1CCNCC1`, the T/C by setting is: (dose: 100.0 mg/kg/injection, schedule: Q04DX002 (ip), vehicle: saline) 105 % of control; (dose: 200.0 mg/kg/injection, schedule: Q04DX002 (ip), vehicle: saline) 102 % of control; (dose: 400.0 mg/kg/injection, schedule: Q04DX002 (ip), vehicle: saline) 94 % of control.

`CCC(CC)C1CC[N-]CC1.CCC(CC)C1CC[N-]CC1.N#C[S-].N#C[S-].[Cu]`: the T/C (dose: 75.0 mg/kg/injection, schedule: Q01DX001 (ip), vehicle: saline) was 123 % of control.

Regarding `COc1ccnc(SCc2ccccc2)n1`, the T/C reads like this: under setting [1], 97 % of control; under setting [3], 100 % of control; under setting [4], 95 % of control; under setting [6], 100 % of control; under setting [9], 102 % of control.

For the molecule `O=C(Nc1ccc(Cl)c(Cl)c1)Nc1ccc(Cl)cc1O`, the T/C (dose: 100.0 mg/kg/injection, schedule: Q01DX001 (ip), vehicle: carboxymethylcellulose (CMC)) is 100 % of control; the T/C (dose: 200.0 mg/kg/injection, schedule: Q01DX001 (ip), vehicle: carboxymethylcellulose (CMC)) was 96 % of control; the T/C (dose: 400.0 mg/kg/injection, schedule: Q01DX001 (ip), vehicle: carboxymethylcellulose (CMC)) is 96 % of control.

As to `CN1CCOC1=Nc1ccc(Cl)cc1`, the T/C was 94 % of control (dose: 100.0 mg/kg/injection, schedule: Q04DX003 (ip), vehicle: saline with Tween-80); 99 % of control (dose: 200.0 mg/kg/injection, schedule: Q04DX003 (ip), vehicle: saline with Tween-80); 88 % of control (dose: 400.0 mg/kg/injection, schedule: Q04DX003 (ip), vehicle: saline with Tween-80).

Regarding `O=S1(=O)CC(O)C1`, the T/C reads like this: (dose: 50.0 mg/kg/injection, schedule: Q01DX001 (ip), vehicle: saline) 91 % of control; under setting [11], 100 % of control; (dose: 200.0 mg/kg/injection, schedule: Q01DX001 (ip), vehicle: saline) 94 % of control; (dose: 400.0 mg/kg/injection, schedule: Q01DX001 (ip), vehicle: saline) 105 % of control.

For the molecule `N=C(N)SCc1c(-c2ccccc2)oc(-c2ccccc2)c1CSC(=N)N`, the T/C reads like this: (dose: 6.25 mg/kg/injection, schedule: Q01DX009 (ip), vehicle: saline with Tween-80) 103 % of control; under setting [10], 101 % of control; (dose: 12.5 mg/kg/injection, schedule: Q04DX003 (ip), vehicle: saline with Tween-80) 97 % of control; (dose: 25.0 mg/kg/injection, schedule: Q04DX003 (ip), vehicle: saline with Tween-80) 101 % of control.

Take `CCNC1C2CCC(C2)C1c1ccccc1` (stereo not drawn): the T/C was 94 % of control (dose: 3.12 mg/kg/injection, schedule: Q01DX009 (ip), vehicle: saline); 94 % of control (dose: 6.25 mg/kg/injection, schedule: Q01DX009 (ip), vehicle: saline); 89 % of control (dose: 12.5 mg/kg/injection, schedule: Q01DX009 (ip), vehicle: saline); 93 % of control (dose: 25.0 mg/kg/injection, schedule: Q01DX009 (ip), vehicle: saline); 89 % of control (dose: 25.0 mg/kg/injection, schedule: Q04DX003 (ip), vehicle: saline); 94 % of control (dose: 50.0 mg/kg/injection, schedule: Q04DX003 (ip), vehicle: saline).

For `CCOC(=O)c1[nH]c(C)c(C(=O)OCc2ccccc2)c1CCC(=O)O`, the T/C (dose: 75.0 mg/kg/injection, schedule: Q01DX001 (ip), vehicle: saline with Tween-80) is 92 % of control; the T/C (dose: 150.0 mg/kg/injection, schedule: Q01DX001 (ip), vehicle: saline with Tween-80) is 97 % of control; the T/C (dose: 300.0 mg/kg/injection, schedule: Q01DX001 (ip), vehicle: saline with Tween-80) is 100 % of control.

On to `CC(C)(C)NN`, for which the T/C is 102 % of control (dose: 5.0 mg/kg/injection, schedule: Q01DX001 (ip), vehicle: saline); 104 % of control (dose: 10.0 mg/kg/injection, schedule: Q01DX001 (ip), vehicle: saline); 98 % of control (dose: 20.0 mg/kg/injection, schedule: Q01DX001 (ip), vehicle: saline); 94 % of control (dose: 40.0 mg/kg/injection, schedule: Q01DX001 (ip), vehicle: saline); 96 % of control (dose: 80.0 mg/kg/injection, schedule: Q01DX001 (ip), vehicle: saline); 101 % of control under setting [11].
